Key:
[1] = tested on: NativeSkin® skin explants (Genoskin); test: Breaks in the DNA (γ-H2AX marking) of NativeSkin skin explant ex vivo after UVA irradiation; format: cell-based, human; details: composition 0.9 mmol/L topical, 60 J/cm^2 UVA every day for 3 days, n=10 images, FIG. 7
Method: The test was carried out on NativeSkin® skin explants (Genoskin), a biopsy of skin bathed in a solid, nourishing matrix while its epidermal surface is preserved in contact with the air. The biopsy is firmly anchored in the matrix and sealed in order to prevent any lateral diffusion of formulation intended for topical application.
The study was carried out on a donor (phototype 2) under the following conditions.
The compounds tested are implemented in a composition containing them at 0.9 mmol/L in a mixture of Carbopol® (0.5% p/p), DMSO (0.1% p/p) and H2O (qsp 100%).
The samples are irradiated at 60 J/cm^2 UVA every day for 3 days. A treatment is carried out for 24 h before the irradiation, by application of the composition tested onto the sample (deposition of 40 μl of composition onto the stratum corneum), then a post-treatment of 24 h after the irradiation, in the same manner.
A Control of the sample of skin non-irradiated and a Control of the sample of skin irradiated are also carried out, both with application of the vehicle alone (0.5% Carbopol®, 0.1% DMSO, H2O). The Control of the non-irradiated sample of skin is introduced into the irradiator in a sheet of aluminium, in such a way as to protect it against UVs.
The samples are sampled, cut (according to the conventional method of cryo-sectioning implementing paraffin and freezing) and fixed in 1 ml of formalin for 24 h.
The explants are then included in paraffin and sections of 5 μm are made.
The slides obtained are also marked by immunohistochemistry with the biomarker γ-H2Ax.
The analysis of the marking is carried out with a DM5000B fluorescence microscope (Leica Microsystems) and 10 images are acquired for each sample.
For the marking with γ-H2Ax, for each image, the total number of nuclei is detected with 4′,6-diamidino-2-phenylindole (dapi). In the same image, the number of nuclei having the marking is quantified. The ratio of the number of positive nuclei, multiplied by 100, to the number of total nuclei, is calculated, in order to obtain a percentage (=(positive nuclei*100)/total nuclei), n=10 per sample.
A statistical analysis is carried out with a student's test by comparing the samples to the control (p value[…], p value<0.05**, p value<0.005***, ns not significant).

[2] = tested on: normal human Fibroblasts (NHDF); test: Cellular viability test with cadmium on NHDF; format: cell-based; details: pretreatment 24 h and treatment 24 h with (Ia) 10 ppm, Cd 3 ppm, read at 450 nm, CTL (Cd 3 ppm) 0.95
Method: The cells used for this example are normal human Fibroblasts (NHDF).
A cellular viability test with cadmium is carried out in order to know the protective effect of the compound (Ia) against polluting stress. Cadmium (Cd) is a toxic and ecotoxic heavy metal found in the environment.
The cells are cultured at the concentration of 7000 cells per well of 96-well plates.
The pretreatment is carried out 24 hours after the inoculation of the cells with the compound (Ia) at 10 ppm in an aqueous solution with 0.1% dimethylsulfoxide, or without compound (Ia) for 24 hours.
After the pretreatment, a treatment with cadmium is carried out. The cells are placed in the presence of cadmium at 3 ppm+compound (Ia) at 10 ppm, or only in the presence of cadmium at 3 ppm (CTL) for 24 hours at 37° C., 5% CO2. The control without stress (CTL without stress) corresponds to the cells not having undergone a treatment with cadmium.

NHEK cells = test: Cellular viability (WST1) of NHEK exposed to cigarette extract; format: cell-based, human; details: (Ia) 10 ppm pretreatment 24 h and treatment 24 h; cigarette extract diluted 1/50; WST1, 450 nm; Control 2.070, Cigarette extract 1.392
Method: The cells used for this example are normal human Fibroblasts (NHDF) and normal human epidermal Keratinocytes (NHEK).
A cigarette extract is prepared using a laboratory device allowing the sucking up of cigarette smoke via a suction system, and the controlled bubbling of this cigarette smoke into the solution studied, which is then filtered on a 0.22 μm filter made of Polyether sulfone (PES).
The cells are cultured at the concentration of 7000 cells per well of 96-well plates (NHDF) or 8000 cells per well (NHEK), in the presence of standard culture medium for NHDF or NHEK (for 24 h 37° C., 5% CO2).
After pretreatment of the cells with the compound (Ia) at 10 ppm for 24 h the cells are treated with the cigarette extract diluted to 1/50th in the culture medium with or without the compound (Ia) at 10 ppm for 24 h. The absorbance is read a first time at […] (Multiskan®).
Then, 10 μl of WST1 (Roche) are introduced into the medium and the cells are incubated for 3 hours.
The absorbance at 450 nm is measured after the addition of WST1 (Multiskan®) and the results obtained, in terms of cellular viability, are shown in tables 11 and 12 below. The treated cells (Cigarette extract+(Ia)) are compared to the untreated cells (Control) or to the cells having only undergone exposure to the cigarette extract (Cigarette extract).

TNFα = test: Gene expression of TNFα by quantitative RT-PCR in NHEK; format: cell-based, human; details: (Ia) 3 ppm (10^−5M), 24 hours
Method: In these examples, the expression of the messenger RNA is measured by the technique of quantitative RT-PCR (reverse transcription followed by polymerase chain reaction), after incubation in vitro of the various cell types in the absence or in the presence of compound (Ia).
This study was carried out on normal human dermal Fibroblasts (NHDF) or normal human epidermal Keratinocytes (NHEK). The compound (Ia) is tested at 10^−5M in an aqueous solution with 0.1% dimethylsulfoxide.
The cells are cultured at the concentration of 10,000 cells per well of 96-well plates, in the presence of standard culture medium according to the cell type.
The compound (Ia) is then added at the concentration (3 ppm), for 24 hours.
The supernatant is eliminated and the cells are taken up in a specific buffer for the extraction of the messenger RNA (mRNA). The mRNA is purified and reverse transcribed in the presence of a commercial reverse transcriptase.
The complementary DNA (cDNA) obtained is quantified by RT-PCR, by means of suitable primers. The rate of expression of the mRNA is normalised with 5 reference genes.
The cells used for this example are normal human keratinocytes (NHEK).

`Cc1ncc(CO)c(CNC(=O)/C=C/c2ccc(O)c(O)c2)c1O` [Compound (Ia)] was tested, and the “percentage of nuclei positive for marking with γ-H2AX, compared with controls” value [1] was “clearly reduced with respect to the irradiated control sample”, the “Cellular viability during the exposure or non-exposure to cadmium (optical density)” value [2] was 1.28 optical density and the “Cellular viability on NHEK (Optical density)” value (NHEK cells) was 2.589 Optical density. For the same compound, the “Reduction of the gene expression compared to the basal level based on 100% (TNFα)” value (TNFα) was −45%.
